These results are taken from the Kinase Knowledgebase extract (Sharma et al. 2016).

Bounds are passed on as bounds.

In this test the target is PIK3CG (human) (UniProt P48736). As to the kind of experiment: Inhibition of PIK3CG Kinase Activity.
PIK3CG (human), sequence (P48736 whole entry, looked up): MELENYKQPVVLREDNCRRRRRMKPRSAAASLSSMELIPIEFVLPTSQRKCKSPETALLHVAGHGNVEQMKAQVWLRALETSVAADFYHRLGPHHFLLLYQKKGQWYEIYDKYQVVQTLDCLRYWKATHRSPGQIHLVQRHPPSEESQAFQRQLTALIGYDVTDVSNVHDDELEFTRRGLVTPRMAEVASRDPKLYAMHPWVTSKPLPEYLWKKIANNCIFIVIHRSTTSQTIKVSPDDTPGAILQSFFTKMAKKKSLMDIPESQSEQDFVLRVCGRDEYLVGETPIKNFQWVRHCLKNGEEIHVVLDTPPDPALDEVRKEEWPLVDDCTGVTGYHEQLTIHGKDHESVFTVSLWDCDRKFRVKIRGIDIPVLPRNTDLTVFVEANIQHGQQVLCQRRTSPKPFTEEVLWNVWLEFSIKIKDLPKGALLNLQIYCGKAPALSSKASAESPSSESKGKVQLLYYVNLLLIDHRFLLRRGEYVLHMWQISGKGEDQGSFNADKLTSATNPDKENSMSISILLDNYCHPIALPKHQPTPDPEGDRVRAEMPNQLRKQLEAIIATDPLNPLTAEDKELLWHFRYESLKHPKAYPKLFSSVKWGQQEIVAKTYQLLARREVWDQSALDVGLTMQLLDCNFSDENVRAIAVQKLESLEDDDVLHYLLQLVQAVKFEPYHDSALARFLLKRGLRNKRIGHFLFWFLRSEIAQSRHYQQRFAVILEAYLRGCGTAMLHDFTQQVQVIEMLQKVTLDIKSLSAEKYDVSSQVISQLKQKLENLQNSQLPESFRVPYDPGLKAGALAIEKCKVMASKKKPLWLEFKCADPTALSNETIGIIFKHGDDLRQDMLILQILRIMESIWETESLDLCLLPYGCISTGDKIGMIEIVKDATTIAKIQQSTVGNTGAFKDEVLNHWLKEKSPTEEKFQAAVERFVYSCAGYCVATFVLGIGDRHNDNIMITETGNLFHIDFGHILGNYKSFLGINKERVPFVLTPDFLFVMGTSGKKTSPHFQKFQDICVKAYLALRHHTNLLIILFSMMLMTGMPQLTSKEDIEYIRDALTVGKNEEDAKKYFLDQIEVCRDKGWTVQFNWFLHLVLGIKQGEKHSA
Broadly, the Ki is the equilibrium dissociation constant of an inhibitor or competing ligand from its target. Read a low Ki as tighter binding. With `COc1cc(-c2ccc3c(c2)CN(c2cc(C)n(C)n2)C3=O)cnc1OC`, the Ki fell in the range of 100 to 490 nM. `COc1cc(-c2ccc3c(c2)CN(c2cc(C)ns2)C3=O)cnc1OC` returned a Ki of 100 to 490 nM. Molecule `CCNC(=O)c1cncc(-c2cc(C)c3c(n2)C(C)N(c2cnn(CC(F)(F)F)c2)C3=O)c1` (stereo unspecified) gave a Ki below 100 nM. Regarding `COc1cc(-c2ccc3c(n2)C(C)N(c2ccn(CC(F)(F)F)n2)C3=O)cnc1OC` (stereo unspecified), the Ki is below 100 nM.

Regarding `COc1cc(N2Cc3nc(-c4cnc(OC)c(OC)c4)cc(C)c3C2=O)ccn1`, the Ki was below 100 nM. In the case of `COc1cc(-c2ccc3c(n2)CN(c2ccc(N4CCC(F)CC4)nc2)C3=O)cnc1OC`, the Ki is below 100 nM. With `CC[C@H]1c2nc(-c3cnc(OC)c(OC)c3)ccc2C(=O)N1c1cnn(CC(F)(F)F)c1`, the Ki is 100 to 490 nM. On to `COc1cc(-c2cc(OC)c3c(n2)CN(c2cnn(CC(F)(F)F)c2)C3=O)cnc1OC`, for which the Ki is below 100 nM. Regarding `COc1cc(-c2ccc3c(n2)CN(c2cnn(CCn4nccc4C)c2)C3=O)cnc1OC`, the Ki lay within 100 to 490 nM. The molecule `Cc1cc(-c2cc(O)cs2)nc2c1C(=O)N(c1cnn(CC(F)(F)F)c1)C2` had a Ki below 100 nM. The molecule `CCc1ncc(-c2cc(C)c3c(n2)CN(c2cnn(CC(F)(F)F)c2)C3=O)cc1OC` yielded a Ki below 100 nM. In the case of `CCOc1cc(-c2cc(C)c3c(n2)CN(c2ccon2)C3=O)cnc1OCC` it was below 100 nM; in that of `COc1cc(-c2ccc3c(n2)[C@@H](C)N(c2cnn(CC(C)(C)O)c2)C3=O)cnc1OC`, below 100 nM. Consider `COCc1cccc(-c2cc(C)c3c(n2)CN(c2cnn(C(C)(C)C#N)c2)C3=O)c1`, for which the Ki is 100 to 490 nM.

`COc1cncc(-c2cc(C)c3c(n2)[C@]2(CCOC2)N(c2cnn(CC(F)(F)F)c2)C3=O)c1` had a Ki below 100 nM.

The molecule `Cc1cc(-c2cnc(C)c(O)c2)nc2c1C(=O)N(c1cnn(CC(F)(F)F)c1)C2` returned a Ki below 100 nM.

`CCn1cc(N2C(=O)c3ccc(-c4cnc(OC)c(OC(F)F)c4)nc3[C@@H]2C)cn1` had a Ki below 100 nM.

On to `Cc1cc(-c2cncc(C(=O)NC(C)C)c2)nc2c1C(=O)N(c1cnn(CC(F)(F)F)c1)C2(C)C`, for which the Ki is below 100 nM.

For the molecule `COc1cc(-c2cc(C)c3c(n2)CN(c2ccn(C)n2)C3=O)cnc1OC`, the Ki is below 100 nM.

Turning to `COc1cc(-c2cc(C)c3c(n2)CN(c2cnc(OC)c(F)c2)C3=O)cnc1OC`, the Ki is below 100 nM.

Turning to `COCCOC1c2nc(-c3cnc(OC)c(OC)c3)ccc2C(=O)N1c1cnn(CC(F)(F)F)c1` (stereo unspecified), the Ki was below 100 nM. `CCCOCCOc1ncc(-c2cc(C)c3c(n2)CN(c2cnn(CC(F)(F)F)c2)C3=O)cc1OC`: the Ki lay in the range of 100 to 490 nM. In the case of `Cc1cc(-c2cc(O)cc(OC(F)(F)F)c2)nc2c1C(=O)N(c1cnn(CC(F)(F)F)c1)C2`, the Ki is below 100 nM. The molecule `CCCCn1cc(N2Cc3cc(-c4cnc(OC)c(OC)c4)ccc3C2=O)cn1` displayed a Ki of 100 to 490 nM. Molecule `CCn1cc(N2Cc3nc(-c4ccc(OC)c(OC)c4)cc(C)c3C2=O)cn1` displayed a Ki below 100 nM. In turn, `CC(C)(C#N)n1cc(N2Cc3nc(-c4cncc(OC(F)F)c4)ccc3C2=O)cn1` showed a Ki of 100 to 490 nM. The result for `COCCNC(=O)c1cc(-c2cc(C)c3c(n2)C(C)(C)N(c2cnn(CC(F)(F)F)c2)C3=O)cnc1OC` reads below 100 nM. `COc1cc(-c2cc(C)c3c(n2)CN(c2cc(C)n(Cc4ccccn4)n2)C3=O)cnc1OC` displayed a Ki below 100 nM. In turn, `Cc1cc(-c2cnc3ccccc3c2)nc2c1C(=O)N(c1cn[nH]c1)C2` yielded a Ki of 100 to 490 nM. `CCn1cc(N2Cc3cc(-c4cnc5ccccc5c4)ccc3C2=O)cn1` came in with a Ki of 100 to 490 nM. Molecule `COc1cc(-c2cc(C)c3c(n2)C(OCC2CC2)N(c2cnn(CC(F)(F)F)c2)C3=O)cnc1OC` (stereo unspecified) returned a Ki below 100 nM. `COc1cc(-c2cc(C)c3c(n2)C2(CCOCC2)N(c2cnn(C(C)(C)C#N)c2)C3=O)cnc1OC` came in with a Ki below 100 nM. `COc1ncc(-c2cc(C)c3c(n2)C(C)(C)N(c2cnn(CC(F)(F)F)c2)C3=O)cc1C(=O)NCC(C)O` (stereo unspecified): the Ki is below 100 nM.

For the molecule `COc1cc(-c2cc(C3CC3)c3c(n2)CN(c2cnn(CC(F)(F)F)c2)C3=O)cnc1OC`, the Ki is below 100 nM. `C#CCn1cc(N2Cc3cc(-c4cnc(OC)c(OC)c4)ccc3C2=O)cn1` yielded an inhibition constant Ki below 100 nM. The result for `COc1cc(-c2ccc3c(n2)CN(c2ccn(CC(F)F)c(=O)c2)C3=O)cnc1OC` reads below 100 nM; that for `COc1ncc(-c2cc(C)c3c(n2)C(C)(C)N(c2cnn(CC(F)(F)F)c2)C3=O)cc1C(=O)NCCN(C)C`, below 100 nM. As to `CNC(=O)c1cc(-c2cc(C)c3c(n2)C(C)(C)N(c2cnn(CC(F)(F)F)c2)C3=O)cnc1OC`, the Ki is 100 to 490 nM. Take `Cc1cc(-c2cncc(S(C)(=O)=O)c2)nc2c1C(=O)N(c1cnn(CC(F)(F)F)c1)C2(C)C`: the Ki is below 100 nM. `COc1cc(-c2cc(C)c3c(n2)CN(c2ccn(C(C)(C)C#N)n2)C3=O)cnc1OC` came in with a Ki below 100 nM. The molecule `COc1cc(-c2ccc3c(n2)CN(c2ccc(=O)n(CC4COCCO4)c2)C3=O)cnc1OC` (stereo unspecified) registered a Ki below 100 nM. `COCCNC(=O)c1cncc(-c2cc(C)c3c(n2)C(C)(C)N(c2cnn(CC(F)(F)F)c2)C3=O)c1` showed a Ki below 100 nM. On to `COc1cc(-c2ccc3c(n2)CN(c2ccc(OCC(F)(F)F)nc2)C3=O)cnc1OC`, for which the Ki fell in the range of 100 to 490 nM. Regarding `COc1cc(-c2ccc3c(n2)CN(c2ccn[nH]2)C3=O)cnc1OC`, the Ki is below 100 nM. `COc1ncc(-c2cc(C)c3c(n2)CN(c2cnn(CC(F)(F)F)c2)C3=O)cc1OCC1CCCCO1` (stereo unspecified): the Ki is below 100 nM.

Molecule `COc1csc(-c2cc(C)c3c(n2)CN(c2cnn(CC(F)(F)F)c2)C3=O)c1` showed a Ki below 100 nM. In the case of `COc1cc(-c2cc(C)c3c(n2)CN(c2cncc(CC#N)c2)C3=O)cnc1OC` it was below 100 nM. `COc1cc(-c2ccc3c(n2)C(C)N(c2cnn(C(C)(C)C#N)c2)C3=O)cnc1OC` (stereo unspecified) had a Ki below 100 nM. In the case of `COc1cc(-c2ccc3c(n2)CN(c2cnn(CC4CC4)c2)C3=O)cnc1OC` it was below 100 nM; in that of `Cc1cc(-c2cncc(OC(F)F)c2)nc2c1C(=O)N(c1cnn(CC(F)(F)F)c1)C2(C)C`, below 100 nM. Molecule `COc1cc(-c2cc(C)c3c(n2)[C@@H](C)N(c2cnn(CC(F)(F)F)c2)C3=O)cnc1C` showed a Ki below 100 nM.

For the molecule `CCO[C@H]1c2nc(-c3cnc(OC)c(OC)c3)cc(C)c2C(=O)N1c1cnn(CC(F)(F)F)c1`, the Ki was below 100 nM. Turning to `COc1cncc(-c2cc(C)c3c(n2)[C@H](C)N(c2ccn(CC(C)(C)O)n2)C3=O)c1`, the Ki was below 100 nM. For the molecule `COc1cc(-c2cc(C)c3c(n2)CN(c2cnn(CC(F)(F)F)c2)C3=O)ccc1Cl`, the Ki was below 100 nM. Take `CCOc1cc(-c2ccc3c(n2)CN(c2cnn(CC#N)c2)C3=O)cnc1OC`: the Ki was below 100 nM. `COc1cncc(-c2cc(C)c3c(n2)C(C)N(c2ccn(CC(C)(C)O)n2)C3=O)c1` (stereo unspecified): the Ki is below 100 nM.

As for `COc1cncc(-c2cc(C)c3c(n2)C(C)(C)N(c2ccn([C@@H]4CCOC4)n2)C3=O)c1`, the Ki was in the range of 100 to 490 nM. Turning to `COc1cc(-c2cc(C)c3c(n2)C(OC2CCC2)N(c2cnn(CC(F)(F)F)c2)C3=O)cnc1OC` (stereo unspecified), the Ki is below 100 nM. In turn, `COc1cc(-c2cc(C)c3c(n2)CN(c2ccc(C(C)C)nc2)C3=O)cnc1OC` gave a Ki below 100 nM. The molecule `COc1cc(-c2ccc3c(c2)CN(c2cccc(C#N)c2)C3=O)cnc1OC` returned a Ki of 100 to 490 nM.

As for `COc1cc(-c2ccc3c(n2)C(C)N(c2cccc(C(O)C(F)(F)F)n2)C3=O)cnc1OC` (stereo unspecified), the Ki was below 100 nM.
